Data from article PMC10046369, “Low-Affinity/High-Selectivity Dopamine Transport Inhibition Sufficient to Rescue Cognitive Functions in the Aging Rat” (Biomolecules, 2023).

Experiments:
Test in all cases: cell-based
Parameters in all cases: Eurofins Cerep functional GPCR screen, antagonist mode, inhibition of control agonist response
Conditions in all cases: read-out: % Inhibition of Control Agonist Response, Mean
D4.4 = target: T1, D4.4 (Homo sapiens, UniProt P21917)
T1 construct: gene DRD4; D4.4

CCR1 = CCR1 (Homo sapiens, UniProt P32246)
GHRH = target: T2, GHRH (Homo sapiens, UniProt Q02643)
T2 construct: gene GHRHR
T2 sequence (Q02643 whole entry): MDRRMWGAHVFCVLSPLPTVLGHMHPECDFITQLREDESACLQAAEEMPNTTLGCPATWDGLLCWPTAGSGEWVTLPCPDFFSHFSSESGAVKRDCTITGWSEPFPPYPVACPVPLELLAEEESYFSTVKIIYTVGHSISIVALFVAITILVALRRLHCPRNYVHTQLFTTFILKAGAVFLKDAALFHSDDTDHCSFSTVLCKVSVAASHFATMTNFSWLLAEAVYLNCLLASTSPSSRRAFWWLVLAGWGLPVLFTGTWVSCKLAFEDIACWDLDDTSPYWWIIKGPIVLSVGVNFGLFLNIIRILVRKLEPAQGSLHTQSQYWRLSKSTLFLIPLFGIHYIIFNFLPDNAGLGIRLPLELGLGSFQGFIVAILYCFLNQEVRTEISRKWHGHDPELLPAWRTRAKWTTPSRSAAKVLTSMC

C3aR = target: T3, C3aR (Homo sapiens, UniProt Q16581)
T3 construct: gene C3AR1

H1 = target: T4, H1 (Homo sapiens, UniProt P35367)
T4 construct: gene HRH1
T4 sequence (P35367 whole entry): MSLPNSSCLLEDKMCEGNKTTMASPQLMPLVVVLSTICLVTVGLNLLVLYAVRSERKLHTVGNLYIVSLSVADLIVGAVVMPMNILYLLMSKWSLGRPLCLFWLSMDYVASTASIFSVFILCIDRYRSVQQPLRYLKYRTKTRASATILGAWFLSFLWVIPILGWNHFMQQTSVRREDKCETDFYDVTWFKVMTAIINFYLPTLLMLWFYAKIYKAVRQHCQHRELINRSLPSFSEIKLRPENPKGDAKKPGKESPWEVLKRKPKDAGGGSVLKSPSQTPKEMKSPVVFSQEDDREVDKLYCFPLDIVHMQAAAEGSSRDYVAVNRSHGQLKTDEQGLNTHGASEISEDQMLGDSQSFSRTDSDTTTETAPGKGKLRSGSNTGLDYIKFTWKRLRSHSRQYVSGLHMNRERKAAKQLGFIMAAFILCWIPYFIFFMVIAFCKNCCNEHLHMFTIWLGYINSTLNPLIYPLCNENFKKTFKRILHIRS

GIP = target: T5, GIP (Homo sapiens, UniProt P48546)
T5 construct: gene GIPR

GnRH = target: T6, GnRH (Homo sapiens, UniProt P30968)
T6 construct: gene GNRHR
T6 sequence (P30968 whole entry): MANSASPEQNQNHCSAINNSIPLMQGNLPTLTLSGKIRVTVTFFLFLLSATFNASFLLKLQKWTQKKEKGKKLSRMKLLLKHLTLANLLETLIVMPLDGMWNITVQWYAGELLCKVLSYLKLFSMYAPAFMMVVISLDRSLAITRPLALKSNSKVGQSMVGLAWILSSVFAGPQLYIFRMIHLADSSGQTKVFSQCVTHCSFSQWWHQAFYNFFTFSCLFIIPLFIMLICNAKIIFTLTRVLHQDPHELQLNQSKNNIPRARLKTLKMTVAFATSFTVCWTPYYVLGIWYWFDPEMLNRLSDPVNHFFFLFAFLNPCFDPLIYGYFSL

β3 = target: T7, β3 (Homo sapiens, UniProt P13945)
T7 construct: gene ADRB3
T7 sequence (P13945 whole entry): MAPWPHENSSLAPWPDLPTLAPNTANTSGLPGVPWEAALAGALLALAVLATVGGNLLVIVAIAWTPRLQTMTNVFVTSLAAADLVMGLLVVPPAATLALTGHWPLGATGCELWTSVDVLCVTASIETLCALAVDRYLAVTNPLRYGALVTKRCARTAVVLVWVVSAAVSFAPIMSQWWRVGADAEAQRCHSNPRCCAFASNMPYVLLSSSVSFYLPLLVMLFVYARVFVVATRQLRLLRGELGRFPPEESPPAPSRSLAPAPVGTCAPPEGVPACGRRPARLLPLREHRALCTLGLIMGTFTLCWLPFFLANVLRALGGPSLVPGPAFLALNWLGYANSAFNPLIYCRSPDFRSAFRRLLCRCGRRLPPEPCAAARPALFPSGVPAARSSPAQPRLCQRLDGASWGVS

alpha 1D = target: T8, alpha 1D (Homo sapiens, UniProt P25100)
T8 construct: gene ADRA1D

CCR7 = CCR7 (Homo sapiens, UniProt P32248)
FFA1 = target: T9, FFA1 (Homo sapiens, UniProt O14842)
T9 construct: gene FFAR1

CCK2 (CCKB) = target: T10, CCK2 (CCKB) (Homo sapiens, UniProt P32239)
T10 construct: gene CCKBR
T10 sequence (P32239 whole entry): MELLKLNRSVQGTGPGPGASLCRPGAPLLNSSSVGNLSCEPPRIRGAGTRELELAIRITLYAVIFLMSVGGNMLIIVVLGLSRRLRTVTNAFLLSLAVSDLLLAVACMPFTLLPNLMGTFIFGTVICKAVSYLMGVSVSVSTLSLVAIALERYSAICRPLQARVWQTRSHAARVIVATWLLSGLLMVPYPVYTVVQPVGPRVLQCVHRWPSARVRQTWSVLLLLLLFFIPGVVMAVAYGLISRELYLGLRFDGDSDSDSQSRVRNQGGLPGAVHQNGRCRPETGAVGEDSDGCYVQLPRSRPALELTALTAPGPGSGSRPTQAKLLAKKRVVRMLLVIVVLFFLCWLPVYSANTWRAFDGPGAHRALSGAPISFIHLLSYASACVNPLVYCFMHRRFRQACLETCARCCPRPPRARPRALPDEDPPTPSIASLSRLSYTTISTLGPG

CT (Calcitonin) = target: T11, CT (Calcitonin) (Homo sapiens, UniProt P30988)
T11 construct: gene CALCR

BLT1 (LTB4) = target: T12, BLT1 (LTB4) (Homo sapiens, UniProt Q15722)
T12 construct: gene LTB4R
T12 sequence (Q15722 whole entry): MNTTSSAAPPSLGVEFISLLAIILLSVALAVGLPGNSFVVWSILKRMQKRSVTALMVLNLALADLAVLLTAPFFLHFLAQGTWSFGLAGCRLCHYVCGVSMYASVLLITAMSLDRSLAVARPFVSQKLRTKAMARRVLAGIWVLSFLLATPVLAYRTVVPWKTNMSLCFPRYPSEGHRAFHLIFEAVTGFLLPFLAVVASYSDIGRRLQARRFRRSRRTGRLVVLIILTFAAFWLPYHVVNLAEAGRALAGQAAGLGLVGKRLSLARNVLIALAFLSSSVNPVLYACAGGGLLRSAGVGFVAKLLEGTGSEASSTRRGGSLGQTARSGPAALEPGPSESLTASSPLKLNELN

GPR103/QRFP = target: T13, GPR103/QRFP (Homo sapiens, UniProt Q96P65)
T13 construct: gene QRFPR

AT1 = target: T14, AT1 (Homo sapiens, UniProt P30556)
T14 construct: gene AGTR1
T14 sequence (P30556 whole entry): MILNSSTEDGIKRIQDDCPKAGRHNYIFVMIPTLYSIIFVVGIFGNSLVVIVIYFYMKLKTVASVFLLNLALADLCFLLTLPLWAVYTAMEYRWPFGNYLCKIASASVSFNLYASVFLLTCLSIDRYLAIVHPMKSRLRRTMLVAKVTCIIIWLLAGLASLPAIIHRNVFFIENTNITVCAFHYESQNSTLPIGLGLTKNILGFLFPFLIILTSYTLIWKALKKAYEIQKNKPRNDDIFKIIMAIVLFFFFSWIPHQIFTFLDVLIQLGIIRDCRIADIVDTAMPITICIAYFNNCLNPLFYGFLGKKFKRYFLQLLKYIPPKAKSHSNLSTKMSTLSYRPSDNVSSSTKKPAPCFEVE

CCK1 (CCKA) = target: T15, CCK1 (CCKA) (Homo sapiens, UniProt P32238)
T15 construct: gene CCKAR
T15 sequence (P32238 whole entry): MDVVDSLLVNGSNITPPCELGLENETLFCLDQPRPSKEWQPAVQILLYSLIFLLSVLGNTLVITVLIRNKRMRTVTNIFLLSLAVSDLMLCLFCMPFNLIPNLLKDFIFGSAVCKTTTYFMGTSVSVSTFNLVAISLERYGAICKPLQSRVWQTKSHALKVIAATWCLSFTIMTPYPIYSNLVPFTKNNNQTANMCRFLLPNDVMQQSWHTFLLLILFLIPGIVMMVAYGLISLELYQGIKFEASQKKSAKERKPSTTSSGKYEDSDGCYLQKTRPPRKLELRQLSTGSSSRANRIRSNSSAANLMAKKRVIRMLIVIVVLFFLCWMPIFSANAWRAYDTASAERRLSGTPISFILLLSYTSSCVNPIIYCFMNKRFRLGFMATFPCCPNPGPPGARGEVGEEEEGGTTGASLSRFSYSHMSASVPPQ

B2 = target: T16, B2 (Homo sapiens, UniProt P30411)
T16 construct: gene BDKRB2

D3 = target: T17, D3 (Homo sapiens, UniProt P35462)
T17 construct: gene DRD3

CB2 = target: T18, CB2 (Homo sapiens, UniProt P34972)
T18 construct: gene CNR2
T18 sequence (P34972 whole entry): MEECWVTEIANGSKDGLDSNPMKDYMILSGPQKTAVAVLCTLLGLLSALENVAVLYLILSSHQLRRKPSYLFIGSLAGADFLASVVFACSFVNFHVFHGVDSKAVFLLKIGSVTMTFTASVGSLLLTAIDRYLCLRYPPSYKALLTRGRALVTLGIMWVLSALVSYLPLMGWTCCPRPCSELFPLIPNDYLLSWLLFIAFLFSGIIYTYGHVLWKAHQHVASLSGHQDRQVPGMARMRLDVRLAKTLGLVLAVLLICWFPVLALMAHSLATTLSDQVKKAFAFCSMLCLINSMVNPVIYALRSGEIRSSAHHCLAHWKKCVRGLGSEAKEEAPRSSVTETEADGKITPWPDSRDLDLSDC

β2 = target: T19, β2 (Homo sapiens, UniProt P07550)
T19 construct: gene ADRB2
T19 sequence (P07550 whole entry): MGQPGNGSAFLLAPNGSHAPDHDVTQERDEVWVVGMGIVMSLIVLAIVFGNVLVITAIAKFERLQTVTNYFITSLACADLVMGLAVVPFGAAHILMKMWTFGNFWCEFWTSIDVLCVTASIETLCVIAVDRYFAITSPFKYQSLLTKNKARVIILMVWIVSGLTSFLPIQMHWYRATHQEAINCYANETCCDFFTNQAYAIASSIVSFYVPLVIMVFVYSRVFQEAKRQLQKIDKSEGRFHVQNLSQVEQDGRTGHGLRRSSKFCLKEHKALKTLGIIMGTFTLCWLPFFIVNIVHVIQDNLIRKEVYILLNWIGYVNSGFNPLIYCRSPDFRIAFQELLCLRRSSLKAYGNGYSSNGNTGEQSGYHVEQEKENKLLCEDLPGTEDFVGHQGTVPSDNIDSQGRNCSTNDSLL

CXCR1 = CXCR1 (Homo sapiens, UniProt P25024)
Sequence of CXCR1 (P25024 whole entry): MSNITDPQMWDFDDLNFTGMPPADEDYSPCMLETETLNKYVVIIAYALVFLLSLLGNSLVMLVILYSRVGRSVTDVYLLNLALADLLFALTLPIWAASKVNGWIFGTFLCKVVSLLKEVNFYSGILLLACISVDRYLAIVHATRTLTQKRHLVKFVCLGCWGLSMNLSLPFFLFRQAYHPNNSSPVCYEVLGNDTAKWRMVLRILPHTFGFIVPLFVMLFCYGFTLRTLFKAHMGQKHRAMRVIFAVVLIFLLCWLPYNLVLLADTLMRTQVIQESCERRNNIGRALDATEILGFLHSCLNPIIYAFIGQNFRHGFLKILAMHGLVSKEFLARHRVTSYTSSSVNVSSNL

CCR10 = CCR10 (Homo sapiens, UniProt P46092)
Sequence of CCR10 (P46092 whole entry): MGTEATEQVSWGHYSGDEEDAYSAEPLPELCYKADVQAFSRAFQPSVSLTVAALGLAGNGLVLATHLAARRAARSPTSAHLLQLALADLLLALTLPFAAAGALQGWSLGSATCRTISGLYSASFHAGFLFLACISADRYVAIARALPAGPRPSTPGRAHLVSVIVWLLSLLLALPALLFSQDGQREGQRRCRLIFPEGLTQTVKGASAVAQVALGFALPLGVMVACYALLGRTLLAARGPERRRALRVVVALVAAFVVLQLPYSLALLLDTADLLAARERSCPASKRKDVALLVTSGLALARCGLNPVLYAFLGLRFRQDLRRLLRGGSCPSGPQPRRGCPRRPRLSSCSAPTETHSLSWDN

TGR5 = target: T20, TGR5 (Homo sapiens, UniProt Q8TDU6)
T20 construct: gene GPBAR1

D1 = target: T21, D1 (Homo sapiens, UniProt P21728)
T21 construct: gene DRD1

APJ (apelin) = target: T22, APJ (apelin) (Homo sapiens, UniProt P35414)
T22 construct: gene APLNR

## [O-][S@@+](Cc1cncs1)C(c1ccccc1)c1ccccc1 [S-CE-123, (S)-5-((Benzhydrylsulfinyl)Methyl)Thiazole]
D4.4
  inhibition at 2.8 µM: -7.9%
CCR1
  inhibition at 2.8 µM: -1.5%
GHRH
  inhibition at 2.8 µM: 11.7%
C3aR
  inhibition at 2.8 µM: 11.4%
H1
  inhibition at 2.8 µM: -1.9%
GIP
  inhibition at 2.8 µM: -6.6%
GnRH
  inhibition at 2.8 µM: 3.9%
β3
  inhibition at 2.8 µM: 15.5%
Alpha 1D
  inhibition at 2.8 µM: -2.4%
CCR7
  inhibition at 2.8 µM: 2.8%
FFA1
  inhibition at 2.8 µM: -2.8%
CCK2 (CCKB)
  inhibition at 2.8 µM: -6.9%
CT (Calcitonin)
  inhibition at 2.8 µM: -21.7%
BLT1 (LTB4)
  inhibition at 2.8 µM: -4.7%
GPR103/QRFP
  inhibition at 2.8 µM: -8.8%
AT1
  inhibition at 2.8 µM: 3%
CCK1 (CCKA)
  inhibition at 2.8 µM: 18.2%
B2
  inhibition at 2.8 µM: -32.1%
D3
  inhibition at 2.8 µM: -1.9%
CB2
  inhibition at 2.8 µM: 8.6%
β2
  inhibition at 2.8 µM: -1.2%
CXCR1
  inhibition at 2.8 µM: -13%
CCR10
  inhibition at 2.8 µM: -6.9%
TGR5
  inhibition at 2.8 µM: -0.3%
D1
  inhibition at 2.8 µM: -5.6%
APJ (apelin)
  inhibition at 2.8 µM: 6.2%
